The values below come from US8906925B2, “Pyrido[4,3-B]indoles containing rigid moieties” (Medivation Technologies, Inc., priority 2008, dated 2014).

Each structure is given as a SMILES string. Like-named read-outs stand apart in the source and are kept apart here.

The target in assay [1] is T1, human recombinant serotonin (5-Hydroxytryptamine) 5-HT6 receptor (Homo sapiens, UniProt P50406).
T1 construct: expressed in transfected cells; host or cells: human HeLa cells
Kind of assay: Serotonin 5-HT6 radioligand binding ([3H]LSD). As to conditions: read-out: Inhibition of ligand binding, Serotonin 5-HT6 (percent inhibition of specific binding); for inhibition at 1 µM: compound at 1 μM; for inhibition at 0.1 µM: compound at 0.1 μM. As for the experimental part: Compounds of the invention were incubated with 1.5 nM [3H]Lysergic acid diethylamide (LSD) for 120 min. at 37° C. […] Receptor proteins were filtered and washed, the filters were then counted to determine [3H]LSD specifically bound. Compounds were screened at 1 μM or lower, using 1% DMSO as vehicle. Biochemical assay results are presented as the percent inhibition of specific binding in Table 10.

For assay [2], the target named is T2, human recombinant adrenergic α1D receptor (Homo sapiens, UniProt P25100).
T2 construct: expressed in transfected cells; host or cells: human embryonic kidney (HEK-293) cells
T2 sequence (P25100 1-572): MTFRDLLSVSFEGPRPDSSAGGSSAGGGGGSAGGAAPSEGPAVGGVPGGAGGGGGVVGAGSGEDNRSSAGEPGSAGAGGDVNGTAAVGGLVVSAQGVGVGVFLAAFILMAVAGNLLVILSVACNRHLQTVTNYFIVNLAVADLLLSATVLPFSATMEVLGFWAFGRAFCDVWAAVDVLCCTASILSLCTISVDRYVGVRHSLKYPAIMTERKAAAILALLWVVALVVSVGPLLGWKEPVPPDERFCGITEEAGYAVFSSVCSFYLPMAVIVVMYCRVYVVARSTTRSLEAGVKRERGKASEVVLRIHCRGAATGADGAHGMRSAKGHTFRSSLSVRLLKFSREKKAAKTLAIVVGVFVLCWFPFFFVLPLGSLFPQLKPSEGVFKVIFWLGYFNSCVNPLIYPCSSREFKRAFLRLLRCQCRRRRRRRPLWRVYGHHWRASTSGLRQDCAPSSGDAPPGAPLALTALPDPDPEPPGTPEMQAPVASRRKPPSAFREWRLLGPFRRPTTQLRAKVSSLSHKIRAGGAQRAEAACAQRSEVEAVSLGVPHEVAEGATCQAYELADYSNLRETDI
Nature of the assay: Adrenergic α1D radioligand binding ([3H]Prozosin). As to conditions: compound at 1 μM. As to the method:
Compounds of invention were incubated with 0.6 nM [^3H]Prozosin for 60 min. at 25° C. Non-specific binding was estimated in the presence of 10 μM phentolamine. Receptor proteins were filtered and washed, the filters were then counted to determine [^3H]Prozosin specifically bound. Compounds were screened at 1 μM or lower, using 1% DMSO as vehicle. Biochemical assay results are presented as the percent inhibition of specific binding in Table 9.

The target in assay [3] is human recombinant serotonin (5-Hydroxytryptamine) 5-HT7 receptor (Homo sapiens, UniProt P34969). Nature of the assay: Serotonin 5-HT7 radioligand binding ([3H]LSD). Conditions: for inhibition at 1 µM: compound at 1 μM. From the text:
Receptor proteins were filtered and washed, the filters were then counted to determine [^3H]LSD specifically bound.

The target of assay [4] is T3, human recombinant serotonin (5-Hydroxytryptamine) 5-HT2A receptor (Homo sapiens, UniProt P28223).
T3 construct: expressed in transfected cells; host or cells: Chinese hamster ovary (CHO-K1) cells
Nature of the assay: Serotonin 5-HT2A radioligand binding ([3H]Ketanserin). As to the method:
Compounds of the invention were incubated with 0.5 nM [^3H]Ketanserin for 60 min. at 25° C. Non-specific binding was estimated in the presence of 1 μM Mianserin. Receptor proteins were filtered and washed, the filters were then counted to determine [^3H]Ketanserin specifically bound.

The target of assay [5] is T4, human recombinant serotonin (5-Hydroxytryptamine) 5-HT2C receptor (Homo sapiens, UniProt P28335).
T4 construct: expressed in transfected cells; host or cells: Chinese hamster ovary (CHO-K1) cells
T4 sequence (P28335 33-458): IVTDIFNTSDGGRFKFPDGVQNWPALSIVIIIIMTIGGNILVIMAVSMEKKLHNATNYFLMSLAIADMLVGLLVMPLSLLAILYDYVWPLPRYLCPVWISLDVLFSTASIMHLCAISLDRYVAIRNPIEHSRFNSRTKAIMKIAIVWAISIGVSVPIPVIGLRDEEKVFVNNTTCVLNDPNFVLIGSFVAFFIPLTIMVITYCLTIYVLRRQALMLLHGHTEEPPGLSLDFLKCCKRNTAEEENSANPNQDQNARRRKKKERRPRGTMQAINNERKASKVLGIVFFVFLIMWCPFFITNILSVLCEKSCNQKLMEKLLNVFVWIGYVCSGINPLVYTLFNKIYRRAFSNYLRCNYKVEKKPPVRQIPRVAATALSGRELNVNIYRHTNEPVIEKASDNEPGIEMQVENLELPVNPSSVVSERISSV
Kind of assay: Serotonin 5-HT2C radioligand binding ([3H]Mesulergine). As to conditions: read-out: Inhibition of ligand binding, Serotonin 5-HT2C (percent inhibition of specific binding); for inhibition at 1 µM: compound at 1 μM; for inhibition at 0.1 µM: compound at 0.1 μM. The gist of the method:
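Compounds tested at 1 μM or lower (1% DMSO vehicle) for displacement of 1 nM [3H]Mesulergine over 60 min at 25° C. Specific binding determined by filtration counting, with 1 μM Mianserin defining non-specific binding; values are percent inhibition.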

[6] abbreviates: percent inhibition of specific binding, read-out: Inhibition of ligand binding, Adrenergic α1D.
Where [7] appears, read: read-out: Inhibition of ligand binding, Serotonin 5-HT7 (percent inhibition of specific binding).
The mark [8] stands for this setting: read-out: Inhibition of ligand binding, Serotonin 5-HT2A (percent inhibition of specific binding), compound at 1 μM.
The mark [9] stands for this setting: read-out: Inhibition of ligand binding, Serotonin 5-HT2A (percent inhibition of specific binding), compound at 0.1 μM.
Where [10] appears, read: read-out: Inhibition of ligand binding, Adrenergic α1D (percent inhibition of specific binding).

T3 sequence (P28223 whole entry): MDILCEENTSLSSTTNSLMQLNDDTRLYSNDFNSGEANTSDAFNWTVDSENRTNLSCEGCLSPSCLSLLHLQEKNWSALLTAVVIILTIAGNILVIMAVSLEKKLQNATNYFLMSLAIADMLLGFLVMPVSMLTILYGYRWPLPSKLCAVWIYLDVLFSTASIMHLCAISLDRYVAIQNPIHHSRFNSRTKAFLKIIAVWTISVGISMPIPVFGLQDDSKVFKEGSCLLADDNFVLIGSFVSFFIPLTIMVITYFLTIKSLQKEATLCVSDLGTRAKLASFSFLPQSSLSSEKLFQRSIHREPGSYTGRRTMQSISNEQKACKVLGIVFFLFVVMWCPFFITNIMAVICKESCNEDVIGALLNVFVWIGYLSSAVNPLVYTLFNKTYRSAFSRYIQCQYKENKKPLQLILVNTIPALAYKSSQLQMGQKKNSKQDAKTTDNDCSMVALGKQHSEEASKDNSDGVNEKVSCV
human recombinant serotonin (5-Hydroxytryptamine) 5-HT7 receptor, sequence (P34969 whole entry): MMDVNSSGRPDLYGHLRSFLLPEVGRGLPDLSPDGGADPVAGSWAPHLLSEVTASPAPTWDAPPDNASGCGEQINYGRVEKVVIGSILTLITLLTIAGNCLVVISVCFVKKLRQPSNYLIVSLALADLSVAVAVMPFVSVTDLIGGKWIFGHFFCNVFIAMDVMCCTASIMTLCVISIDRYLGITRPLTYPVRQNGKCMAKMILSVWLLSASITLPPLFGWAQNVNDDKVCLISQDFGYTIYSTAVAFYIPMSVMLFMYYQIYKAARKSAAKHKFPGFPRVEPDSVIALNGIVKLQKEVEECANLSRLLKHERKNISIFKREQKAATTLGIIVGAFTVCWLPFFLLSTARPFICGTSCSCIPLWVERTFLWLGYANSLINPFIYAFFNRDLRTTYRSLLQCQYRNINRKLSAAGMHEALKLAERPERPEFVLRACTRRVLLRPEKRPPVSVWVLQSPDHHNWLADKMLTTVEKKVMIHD
T1 sequence (P50406 whole entry): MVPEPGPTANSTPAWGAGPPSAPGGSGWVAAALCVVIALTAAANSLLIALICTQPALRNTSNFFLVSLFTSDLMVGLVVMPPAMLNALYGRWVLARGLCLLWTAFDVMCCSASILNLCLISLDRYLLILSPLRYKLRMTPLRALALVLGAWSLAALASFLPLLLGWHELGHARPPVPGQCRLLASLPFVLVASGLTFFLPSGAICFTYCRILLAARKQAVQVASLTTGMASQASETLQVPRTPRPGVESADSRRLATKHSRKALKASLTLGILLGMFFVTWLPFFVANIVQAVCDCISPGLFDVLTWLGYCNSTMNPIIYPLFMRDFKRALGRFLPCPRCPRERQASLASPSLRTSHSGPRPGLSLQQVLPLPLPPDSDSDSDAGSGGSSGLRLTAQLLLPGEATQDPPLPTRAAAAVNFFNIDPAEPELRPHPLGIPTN

Take `CCC(O)(Cn1c2c(c3cc(C)ccc31)CN(C)CC2)c1ccc(F)cc1` (centres unmarked) [Compound 175, 1-(2,8-dimethyl-3,4-dihydro-1H-pyrido[4,3-b]indol-5(2H)-yl)-2-(4-fluorophenyl)butan-2-ol]: the inhibition at 1 µM is 100% in assay [1]; 75% in assay [2] (setting [6]); 79% in assay [3] (setting [7]); 102% in assay [4] (setting [8]); 95% in assay [5].

For `C/C(=C\n1c2c(c3cc(C)ccc31)CN(C)CC2)c1ccc(Cl)cc1` [Compound 211, (E)-5-(2-(4-chlorophenyl)prop-1-enyl)-2,8-dimethyl-2,3,4,5-tetrahydro-1H-pyrido[4,3-b]indole], the inhibition at 0.1 µM in assay [1] stood at 60%; in assay [4] (setting [9]), 97%; in assay [5], 98%. Also, the inhibition at 1 µM was 98% in assay [1]; 96% in assay [2] (setting [6]); 101% in assay [3] (setting [7]); 99% in assay [4] (setting [8]); 107% in assay [5].

For the compound `Cc1ccc2c(c1)c1c(n2CC(O)c2ccc(F)cc2)CCN(C)C1` (centres unmarked) [Compound 172, 2-(2,8-dimethyl-3,4-dihydro-1H-pyrido[4,3-b]indol-5(2H)-yl)-1-(4-fluorophenyl)ethanol], the inhibition at 1 µM in assay [1] was found to be 93%; in assay [2] (setting [6]) it was 88%; in assay [3] (setting [7]) it was 100%; in assay [4] (setting [8]) it was 91%; in assay [5], 97%.

On to `CCOC(=O)/C=C(/Cn1c2c(c3cc(C)ccc31)CN(C)CC2)c1ccc(F)cc1` [Compound No. 350, (E)-ethyl 4-(2,8-dimethyl-3,4-dihydro-1H-pyrido[4,3-b]indol-5(2H)-yl)-3-(4-fluorophenyl)but-2-enoate], for which the inhibition at 1 µM in assay [1] came out at 103%; in assay [2] (setting [10]), 85%; in assay [3] (setting [7]) it was 71%; in assay [4] (setting [8]), 100%; in assay [5], 87%.

`CNC(=O)c1ccc2c(c1)c1c(n2C#Cc2ccc(F)cc2)CCN(C)C1` [Compound No. 483, 5-((4-fluorophenyl)ethynyl)-N,2-dimethyl-2,3,4,5-tetrahydro-1H-pyrido[4,3-b]indole-8-carboxamide]: the inhibition at 1 µM was 53% in assay [1]; 59% in assay [2] (setting [10]); 16% in assay [3] (setting [7]); 34% in assay [4] (setting [8]); 35% in assay [5].

For the compound `C/C(=C\n1c2c(c3cc(Cl)ccc31)CN(C)CC2)c1ccc(F)cc1` [Compound 83, (E)-8-chloro-5-(2-(4-fluorophenyl)prop-1-enyl)-2,3,4,5-tetrahydro-2-methyl-1H-pyrido[4,3-b]indole], the inhibition at 0.1 µM was 96% in assay [1]; 82% in assay [3] (compound at 0.1 μM, read-out: Inhibition of ligand binding, Serotonin 5-HT7 (percent inhibition of specific binding)); 98% in assay [4] (compound at 0.1 μM, read-out: Inhibition of ligand binding, Serotonin 5-HT2A (percent inhibition of specific binding)); 100% in assay [5]. For the same compound, the inhibition at 1 µM in assay [1] is 102%; in assay [2] (setting [6]), 96%; in assay [3] (setting [7]), 93%; in assay [4] (compound at 1 μM, read-out: Inhibition of ligand binding, Serotonin 5-HT2A (percent inhibition of specific binding)) it was 99%; in assay [5], 98%. In assay [3] (compound at 0.1 μM, 0.1 µM), the “Inhibition of ligand binding, Serotonin 5-HT7 (percent inhibition of specific binding)” value turned out to be 96%.

As for `C=C(Cn1c2c(c3cc(Cl)ccc31)CN(C)CC2)c1ccc(F)cc1` [Compound 128, 8-chloro-5-(2-(4-fluorophenyl)allyl)-2,3,4,5-tetrahydro-2-methyl-1H-pyrido[4,3-b]indole], the inhibition at 0.1 µM in assay [1] was 94%; in assay [4] (setting [9]), 99%. In addition, the inhibition at 1 µM was 101% in assay [1]; 91% in assay [2] (setting [6]); 98% in assay [3] (setting [7]); 100% in assay [4] (setting [8]); 100% in assay [5].

On to `CCCC/C(=C\n1c2c(c3cc(Cl)ccc31)CN(C)CC2)c1ccc(F)cc1` [Compound 208, (E)-8-chloro-5-(2-(4-fluorophenyl)hex-1-enyl)-2-methyl-2,3,4,5-tetrahydro-1H-pyrido[4,3-b]indole], for which the inhibition at 1 µM in assay [1] is 103%; in assay [2] (setting [6]) it was 89%; in assay [3] (setting [7]) it was 100%; in assay [4] (setting [8]), 102%; in assay [5] it was 102%.

A word on the inhibition: it is the drop in the measured response relative to a control, in per cent.
